Results reported in US20100267561A1, “HERBICIDAL PYRIDAZINONE DERIVATIVES” (priority 2007, published 2010).

Columns and labels:
Format in all cases: in vivo
[1] = system: Italian ryegrass (Lolium multiflorum); assay: Test B pre-/postemergence plant response
Method in brief: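 Preemergence and postemergence (plants 2-18 cm, 1- to 4-leaf stage) applications used test chemicals in a non-phytotoxic solvent with surfactant. Plants were held in a greenhouse 13 to 15 days, then rated visually against controls on a 0-100 scale (0 no effect, 100 complete control).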

[2] = system: windgrass (Apera spica-venti); assay: Test C pre-/postemergence plant response
Method in brief: (§1)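 Both preemergence (to planted seed) and postemergence (to plants 2–18 cm high, 1- to 4-leaf) applications used test chemicals in a non-phytotoxic solvent mixture containing surfactant. Evaluation: visual comparison with controls after 15 to 25 days; 0 means no effect, 100 complete control.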

[3] = system: spring wheat (Triticum aestivum); assay: Test C pre-/postemergence plant response
Method in brief: as §1

[4] = system: wild oat (Avena fatua); assay: Test C pre-/postemergence plant response
Method in brief: as §1

[5] = system: blackgrass (Alopecurus myosuroides); assay: Test C pre-/postemergence plant response
Method in brief: as §1

[6] = system: green foxtail (Setaria viridis); assay: Test C pre-/postemergence plant response
Method in brief: as §1

[7] = system: winter wheat (Triticum aestivum); assay: Test C pre-/postemergence plant response
Method in brief: as §1

[8] = system: pigweed (Amaranthus retroflexus); assay: Test C pre-/postemergence plant response
Method in brief: as §1

[9] = system: wild mustard (Sinapis arvensis); assay: Test C pre-/postemergence plant response
Method in brief: as §1

[10] = system: downy bromegrass (Bromus tectorum); assay: Test C pre-/postemergence plant response
Method in brief: as §1

[11] = system: annual bluegrass (Poa annua); assay: Test C pre-/postemergence plant response
Method in brief: as §1

[12] = system: Italian ryegrass (Lolium multiflorum); assay: Test C pre-/postemergence plant response
Method in brief: as §1

[13] = system: winter barley (Hordeum vulgare); assay: Test C pre-/postemergence plant response
Method in brief: as §1

[14] = system: canarygrass (Phalaris minor); assay: Test C pre-/postemergence plant response; conditions: Preemergence
Method in brief: as §1

[15] = 8 g ai/ha, postemergence, 0-100 scale
[16] = Postemergence, 16 g ai/ha, scale 0 to 100
[17] = Postemergence, 62 g ai/ha, scale 0 to 100, 0 no effect, 100 complete control
[18] = Preemergence, 31 g ai/ha, scale 0 to 100 (0 no effect, 100 complete control)
[19] = Preemergence, 8 g ai/ha, scale 0 to 100
[20] = Postemergence, 8 g ai/ha, scale 0 to 100, 0 no effect, 100 complete control
[21] = Postemergence, 16 g ai/ha, scale 0 to 100, 0 no effect, 100 complete control
[22] = Postemergence, 31 g ai/ha, scale 0 to 100, 0 no effect, 100 complete control
[23] = Preemergence, 8 g ai/ha, scale 0 to 100 (0 no effect, 100 complete control)
[24] = Preemergence, 16 g ai/ha, scale 0 to 100 (0 no effect, 100 complete control)
[25] = Preemergence, 62 g ai/ha, scale 0 to 100, 0 no effect, 100 complete control
[26] = 8 g ai/ha, scale 0 to 100 (0 no effect, 100 complete control)
[27] = 16 g ai/ha, scale 0 to 100 (0 no effect, 100 complete control)
[28] = 31 g ai/ha, scale 0 to 100 (0 no effect, 100 complete control)
[29] = 62 g ai/ha, scale 0 to 100, 0 no effect, 100 complete control

Cc1cc(-c2ccc(Cl)cc2)nn1-c1c(OC(=O)OCC(C)C)cnn(C)c1=O [Compound 57]
Ryegrass, Italian plant response rating [1, 15]: 80
Plant response rating, Ryegrass, Italian [1, 16]: 95
Plant response rating, Ryegrass, Italian ([1]; Postemergence, 31 g ai/ha, scale 0 to 100): 95
Plant response rating, Ryegrass, Italian [1, 17]: 95
Plant response rating, Ryegrass, Italian [1, 18]: 95
Plant response rating, Ryegrass, Italian ([1]; Preemergence, 62 g ai/ha, 0 to 100 scale, 0 no effect, 100 complete control): 100
Ryegrass, Italian plant response rating [1, 19]: 0
Ryegrass, Italian plant response rating ([1]; Preemergence, 16 g ai/ha, scale 0 to 100): 70
Plant response rating, Windgrass [2, 20]: 0
Plant response rating, Windgrass [2, 21]: 0
Plant response rating, Windgrass [2, 22]: 0
Plant response rating, Windgrass [2, 17]: 65
Plant response rating, Windgrass [2, 23]: 0
Plant response rating, Windgrass [2, 24]: 0
Plant response rating, Windgrass [2, 18]: 50
Plant response rating, Windgrass [2, 25]: 75
Plant response rating, Wheat, Spring [3, 20]: 0
Plant response rating, Wheat, Spring [3, 21]: 25
Plant response rating, Wheat, Spring [3, 22]: 75
Plant response rating, Wheat, Spring [3, 17]: 75
Plant response rating, Wheat, Spring [3, 23]: 20
Plant response rating, Wheat, Spring [3, 24]: 20
Plant response rating, Wheat, Spring [3, 18]: 65
Plant response rating, Wheat, Spring [3, 25]: 90
Plant response rating, Oat, Wild [4, 20]: 10
Plant response rating, Oat, Wild [4, 21]: 90
Plant response rating, Oat, Wild [4, 22]: 90
Plant response rating, Oat, Wild [4, 17]: 100
Plant response rating, Oat, Wild [4, 23]: 0
Plant response rating, Oat, Wild [4, 24]: 15
Plant response rating, Oat, Wild [4, 18]: 60
Plant response rating, Oat, Wild [4, 25]: 80
Plant response rating, Blackgrass [5, 20]: 35
Plant response rating, Blackgrass [5, 21]: 75
Plant response rating, Blackgrass [5, 22]: 98
Plant response rating, Blackgrass [5, 23]: 75
Plant response rating, Blackgrass [5, 24]: 85
Plant response rating, Blackgrass [5, 18]: 95
Plant response rating, Blackgrass [5, 25]: 95
Plant response rating, Foxtail, Green [6, 20]: 90
Plant response rating, Foxtail, Green [6, 21]: 100
Plant response rating, Foxtail, Green [6, 22]: 100
Plant response rating, Foxtail, Green [6, 17]: 100
Plant response rating, Foxtail, Green [6, 23]: 40
Plant response rating, Foxtail, Green [6, 24]: 100
Plant response rating, Foxtail, Green [6, 18]: 100
Plant response rating, Foxtail, Green [6, 25]: 100
Plant response rating, Wheat, Winter [7, 20]: 0
Plant response rating, Wheat, Winter [7, 21]: 30
Plant response rating, Wheat, Winter [7, 22]: 30
Plant response rating, Wheat, Winter [7, 17]: 50
Plant response rating, Wheat, Winter [7, 23]: 15
Plant response rating, Wheat, Winter [7, 24]: 15
Plant response rating, Wheat, Winter [7, 18]: 20
Plant response rating, Wheat, Winter [7, 25]: 65
Plant response rating, Pigweed [8, 20]: 0
Plant response rating, Pigweed [8, 21]: 0
Plant response rating, Pigweed [8, 22]: 0
Plant response rating, Pigweed [8, 17]: 0
Plant response rating, Pigweed [8, 23]: 0
Plant response rating, Pigweed [8, 24]: 0
Plant response rating, Pigweed [8, 18]: 0
Plant response rating, Pigweed [8, 25]: 0
Plant response rating, Mustard, Wild [9, 20]: 0
Plant response rating, Mustard, Wild [9, 21]: 0
Plant response rating, Mustard, Wild [9, 22]: 0
Plant response rating, Mustard, Wild [9, 17]: 0
Plant response rating, Mustard, Wild [9, 23]: 0
Plant response rating, Mustard, Wild [9, 24]: 0
Plant response rating, Mustard, Wild [9, 18]: 0
Plant response rating, Mustard, Wild [9, 25]: 0
Plant response rating, Bromegrass, Downy [10, 20]: 0
Plant response rating, Bromegrass, Downy [10, 21]: 30
Plant response rating, Bromegrass, Downy [10, 22]: 30
Plant response rating, Bromegrass, Downy [10, 17]: 70
Plant response rating, Bromegrass, Downy [10, 23]: 0
Plant response rating, Bromegrass, Downy [10, 24]: 20
Plant response rating, Bromegrass, Downy [10, 18]: 40
Plant response rating, Bromegrass, Downy [10, 25]: 80
Plant response rating, Bluegrass [11, 20]: 0
Plant response rating, Bluegrass [11, 21]: 10
Plant response rating, Bluegrass [11, 22]: 30
Plant response rating, Bluegrass [11, 17]: 35
Plant response rating, Bluegrass [11, 23]: 0
Plant response rating, Bluegrass [11, 24]: 30
Plant response rating, Bluegrass [11, 18]: 50
Plant response rating, Bluegrass [11, 25]: 65
Plant response rating, Ryegrass, Italian [12, 20]: 75
Plant response rating, Ryegrass, Italian [12, 21]: 98
Plant response rating, Ryegrass, Italian [12, 22]: 100
Plant response rating, Ryegrass, Italian [12, 17]: 100
Plant response rating, Ryegrass, Italian [12, 23]: 65
Plant response rating, Ryegrass, Italian [12, 24]: 85
Plant response rating, Ryegrass, Italian [12, 18]: 100
Plant response rating, Ryegrass, Italian [12, 25]: 100
Plant response rating, Barley, Winter [13, 20]: 0
Plant response rating, Barley, Winter [13, 21]: 15
Plant response rating, Barley, Winter [13, 22]: 15
Plant response rating, Barley, Winter [13, 17]: 90
Plant response rating, Barley, Winter [13, 23]: 0
Plant response rating, Barley, Winter [13, 24]: 0
Plant response rating, Barley, Winter [13, 18]: 20
Plant response rating, Barley, Winter [13, 25]: 60
Plant response rating, Canarygrass [14, 26]: 0
Plant response rating, Canarygrass [14, 27]: 75
Plant response rating, Canarygrass [14, 28]: 80
Plant response rating, Canarygrass [14, 29]: 90

Cc1cc(-c2ccc(Cl)cc2)nn1-c1c(OC(=O)C(C)C)cnn(C)c1=O [Compound 34]
Ryegrass, Italian plant response rating [1, 15]: 70
Plant response rating, Ryegrass, Italian [1, 16]: 85
Plant response rating, Ryegrass, Italian [1, 22]: 95
Plant response rating, Ryegrass, Italian [1, 17]: 100
Plant response rating, Ryegrass, Italian [1, 24]: 100
Plant response rating, Ryegrass, Italian ([1]; Preemergence, 31 g ai/ha, 0 to 100 scale, 0 no effect, 100 complete control): 100
Plant response rating, Ryegrass, Italian ([1]; Preemergence, 62 g ai/ha, scale 0 to 100): 100
Ryegrass, Italian plant response rating [1, 19]: 100
Plant response rating, Windgrass [2, 23]: 0
Plant response rating, Windgrass [2, 24]: 0
Plant response rating, Windgrass [2, 18]: 20
Plant response rating, Windgrass [2, 25]: 60
Plant response rating, Wheat, Spring [3, 23]: 0
Plant response rating, Wheat, Spring [3, 24]: 0
Plant response rating, Wheat, Spring [3, 18]: 50
Plant response rating, Wheat, Spring [3, 25]: 90
Plant response rating, Oat, Wild [4, 23]: 0
Plant response rating, Oat, Wild [4, 24]: 0
Plant response rating, Oat, Wild [4, 18]: 70
Plant response rating, Oat, Wild [4, 25]: 75
Plant response rating, Blackgrass [5, 23]: 0
Plant response rating, Blackgrass [5, 24]: 20
Plant response rating, Blackgrass [5, 18]: 75
Plant response rating, Blackgrass [5, 25]: 85
Plant response rating, Foxtail, Green [6, 23]: 30
Plant response rating, Foxtail, Green [6, 24]: 100
Plant response rating, Foxtail, Green [6, 18]: 100
Plant response rating, Foxtail, Green [6, 25]: 100
Plant response rating, Wheat, Winter [7, 23]: 0
Plant response rating, Wheat, Winter [7, 24]: 10
Plant response rating, Wheat, Winter [7, 18]: 25
Plant response rating, Wheat, Winter [7, 25]: 60
Plant response rating, Pigweed [8, 23]: 0
Plant response rating, Pigweed [8, 24]: 0
Plant response rating, Pigweed [8, 18]: 0
Plant response rating, Pigweed [8, 25]: 0
Plant response rating, Mustard, Wild [9, 24]: 0
Plant response rating, Mustard, Wild [9, 18]: 0
Plant response rating, Mustard, Wild [9, 25]: 0
Plant response rating, Bromegrass, Downy [10, 23]: 0
Plant response rating, Bromegrass, Downy [10, 24]: 0
Plant response rating, Bromegrass, Downy [10, 18]: 10
Plant response rating, Bromegrass, Downy [10, 25]: 60
Plant response rating, Bluegrass [11, 23]: 0
Plant response rating, Bluegrass [11, 24]: 0
Plant response rating, Bluegrass [11, 18]: 0
Plant response rating, Bluegrass [11, 25]: 35
Plant response rating, Ryegrass, Italian [12, 23]: 30
Plant response rating, Ryegrass, Italian [12, 24]: 100
Plant response rating, Ryegrass, Italian [12, 18]: 100
Plant response rating, Ryegrass, Italian [12, 25]: 100
Plant response rating, Barley, Winter [13, 23]: 0
Plant response rating, Barley, Winter [13, 24]: 0
Plant response rating, Barley, Winter [13, 18]: 10
Plant response rating, Barley, Winter [13, 25]: 35
Plant response rating, Canarygrass [14, 26]: 0
Plant response rating, Canarygrass [14, 27]: 20
Plant response rating, Canarygrass [14, 28]: 65
Plant response rating, Canarygrass [14, 29]: 100
